Measured values published in ChEMBL document CHEMBL1135448, “Synthesis and SAR of N-substituted dibenzazepinone derivatives as novel potent and selective alpha(V)beta(3) antagonists” (Bioorg Med Chem Lett, 2002).
Where “and” joins values, the source holds several entries; their conditions need not be identical. Equal entries are not always repeated. Calls of active or inactive are those of the source. The rule behind the calls is not given here.

Legend:
[1] = target: T1, Integrin alpha-V/beta-3 (Homo sapiens, UniProt P05106+P06756); assay: Affinity against alpha V-beta3 integrin via competitive ELISA using vitronectin as natural ligand; type: protein-complex assay
[2] = target: T1, Integrin alpha-V/beta-3; assay: Displacement of vitronectin from alphaV-beta3 integrin in ELISA (Not active); type: protein-complex assay
[3] = species: Homo sapiens; assay: Evaluated for primary human smooth muscle cell migration; type: functional
[4] = target: Integrin alpha-IIb/beta-3 (Homo sapiens, UniProt P05106+P08514); assay: Displacement of alphaIIb-beta3 integrin from fibrinogen by ELISA; type: protein-complex assay
[5] = target: Integrin alpha-5/beta-1 (Homo sapiens) (UniProt P05556+P08648); assay: Cell adhesion via alpha5-beta1 integrin to fibronectin at 10e-5 M (Not active); type: protein-complex assay
[6] = target: T1, Integrin alpha-V/beta-3; assay: Cell adhesion of alphaV-beta3 integrin expressed in CHO-K1 cell to osteopontin (OPN); type: cell-based
[7] = target: Integrin alpha-4/beta-1 (Homo sapiens) (UniProt P05556+P13612); assay: Cell adhesion of alpha4-beta1 integrin to fibronectin at 10e-5 M (Not active); type: protein-complex assay
[8] = target: T1, Integrin alpha-V/beta-3; assay: Adhesion of recombinant alphaV-beta3 integrin expressed in CHO-K1 to osteopontin (OPN); type: cell-based
[9] = tested on: Caco-2; assay: Apparent permeability constant (Papp) was evaluated for Caco-2 model permeation; type: functional, cell-based; details: Homo sapiens

SMILES	IC50 [1]	further results
O=C(O)CC1c2ccccc2C(=O)N(CCCCc2ccc(NC(=O)NCc3ccccc3)cc2)c2ccccc21 (centres undefined)	10000 nM	
O=C(O)CC1c2ccccc2C(=O)N(CC(=O)NCc2ccc(-c3nc4ccccc4[nH]3)s2)c2ccccc21 (centres undefined)	500 nM	
N=C(N)c1csc(CNC(=O)CN2C(=O)c3ccccc3C(CC(=O)O)c3ccccc32)c1 (centres undefined)	1000 nM	
O=C(O)CC1c2ccccc2C(=O)N(CC(=O)NCc2cccc(-c3nc4ccccc4[nH]3)c2)c2ccccc21 (centres undefined)	10000 nM	
O=C(O)CC1c2ccccc2C(=O)N(CC(=O)NCc2nc3ccccc3[nH]2)c2ccccc21 (centres undefined)	1000 nM	
O=C(O)CC1c2ccccc2C(=O)N(CC(=O)NCc2ccc(-c3nc4ccccc4[nH]3)nc2)c2ccccc21 (centres undefined)	200 nM	
O=C(O)CC1c2ccccc2C(=O)N(CC(=O)NCc2ccc(Nc3ccccn3)cc2)c2ccccc21 (centres undefined)	5000 nM	
O=C(O)CC1c2ccccc2C(=O)N(CC(=O)NCc2ccc(NC(=O)OCc3ccccc3)cc2)c2ccccc21 (centres undefined)	10000 nM	
O=C(O)CC1c2ccccc2C(=O)N(CC(=O)NCc2ccc(NC(=O)CCc3ccccc3)cc2)c2ccccc21 (centres undefined)		IC50 [2]: Not Active
O=C(O)CC1c2ccccc2C(=O)N(CC(=O)NCc2cc(-c3nc4ccccc4[nH]3)cs2)c2ccccc21 (centres undefined)	100 nM	
O=C(O)CC1c2ccccc2C(=O)N(CC(=O)NCc2ccc(OC(=O)NCc3ccccc3)cc2)c2ccccc21 (centres undefined)	10000 nM	
NC(N)=Nc1ccc(CNC(=O)CN2C(=O)c3ccccc3C(CC(=O)O)c3ccccc32)cc1 (centres undefined)	84 nM	
O=C(O)CC1c2ccccc2C(=O)N(CC(=O)NCc2ccc(-c3nc4cc(Cl)ccc4[nH]3)cc2)c2ccccc21 (centres undefined)	620 nM	
O=C(O)CC1c2ccccc2C(=O)N(CC(=O)NCc2ccc(NC(=O)NCc3ccccc3)cc2)c2ccccc21 (centres undefined)	23 nM	
O=C(O)CC1c2ccccc2C(=O)N(CC(=O)NCCc2ccc(-c3nc4ccccc4[nH]3)cc2)c2ccccc21 (centres undefined)	380 nM	
O=C(O)CC1c2ccccc2C(=O)N(CC(=O)Nc2ccc(-c3nc4ccccc4[nH]3)cc2)c2ccccc21 (centres undefined)	5000 nM	
O=C(O)CC1c2ccccc2C(=O)N(CC(=O)NCc2cc(-c3nc4ncccc4[nH]3)cs2)c2ccccc21 (centres undefined)	500 nM	
O=C(O)CC1c2ccccc2C(=O)N(CC(=O)NCCCCNc2nc3ccccc3[nH]2)c2ccccc21 (centres undefined)	14.9 nM	
O=C(O)CC1c2ccccc2C(=O)N(CCNCc2ccc(NC(=O)NCc3ccccc3)cc2)c2ccccc21 (centres undefined)		IC50 [2]: Not Active
O=C(O)CC1c2ccccc2C(=O)N(CC(=O)NCc2cc(CNc3ccccn3)cs2)c2ccccc21 (centres undefined)	220 nM	
O=C(O)CC1c2ccccc2C(=O)N(CC(=O)NCc2nc(-c3nc4ccccc4[nH]3)cs2)c2ccccc21 (centres undefined)	1000 nM	
O=C(O)CC1c2ccccc2C(=O)N(CC(=O)NCCCNc2ccccn2)c2ccccc21 (centres undefined)	1000 nM	
Cc1cc2nc(-c3ccc(CNC(=O)CN4C(=O)c5ccccc5C(CC(=O)O)c5ccccc54)cc3)[nH]c2cc1C (centres undefined)	220 nM	
O=C(O)CC1c2ccccc2C(=O)N(CC(=O)NCc2ccc(Nc3nc4ccccc4[nH]3)cc2)c2ccccc21 (centres undefined)	7 nM and 7.3 nM	Inhibition [3]: 67%; IC50 [4]: > 100000 nM; inhibition [5]: inactive; IC50 [6]: 100 nM; inhibition [7]: inactive
O=C(O)CC1c2ccccc2C(=O)N(CCOCc2ccc(NC(=O)NCc3ccccc3)cc2)c2ccccc21 (centres undefined)		IC50 [2]: Not Active
O=C(O)CC1c2ccccc2C(=O)N(CC(=O)NCCCCCNc2nc3ccccc3[nH]2)c2ccccc21 (centres undefined)	12.9 nM	
O=C(O)CC1c2ccccc2C(=O)N(CC(=O)NCc2ccc(-c3nc4ccccc4[nH]3)cc2)c2ccccc21 (centres undefined)	74 nM	
O=C(O)CC1c2ccccc2C(=O)N(CC(=O)NC[C@H]2CC[C@H](Nc3nc4ccccc4[nH]3)CC2)c2ccccc21 (some centres undefined)	1.6 nM	Inhibition [3]: 100%; IC50 [4]: > 100000 nM; inhibition [5]: inactive; IC50 [8]: 40 nM; inhibition [7]: inactive; Papp [9]: 2.7 ×10⁻⁶ cm/s
